ChEMBL document CHEMBL3046451, “Design, synthesis, characterization, and in vitro antimicrobial action of novel trisubstituted s-triazines” (2012)
In brackets after ≈: the same amount, converted by molar mass.

Key:
Type in all cases: functional
[1] = system: Candida albicans; experiment: Antifungal activity against Candida albicans MTCC 183 after 48 hr by agar streak dilution method; details: MTCC 183, 48 h
[2] = system: Aspergillus niger; experiment: Antifungal activity against Aspergillus niger MTCC 282 after 48 hr by agar streak dilution method; details: MTCC 282, 48 h
[3] = system: Candida albicans; experiment: Antifungal activity against Candida albicans MTCC 183 after 24 hr by paper disk diffusion method
[4] = system: Aspergillus niger; experiment: Antifungal activity against Aspergillus niger MTCC 282 after 24 hr by paper disk diffusion method
[5] = system: Shigella flexneri; experiment: Antibacterial activity against Shigella flexneri MTCC 1457 after 24 hr by agar streak dilution method; details: MTCC 1457, 24 h
[6] = system: Proteus vulgaris; experiment: Antibacterial activity against Proteus vulgaris MTCC 1771 after 24 hr by agar streak dilution method; details: MTCC 1771, 24 h
[7] = system: Salmonella typhi; experiment: Antibacterial activity against Salmonella enterica subsp. enterica serovar Typhi MTCC 733 after 24 hr by agar streak dilution method; details: MTCC 733, 24 h
[8] = system: Klebsiella pneumoniae; experiment: Antibacterial activity against Klebsiella pneumoniae MTCC 109 after 24 hr by agar streak dilution method; details: MTCC 109, 24 h
[9] = system: Pseudomonas aeruginosa; experiment: Antibacterial activity against Pseudomonas aeruginosa MTCC 741 after 24 hr by agar streak dilution method; details: MTCC 741, 24 h
[10] = system: Escherichia coli; experiment: Antibacterial activity against Escherichia coli MTCC 739 after 24 hr by agar streak dilution method; details: MTCC 739, 24 h
[11] = system: Bacillus cereus; experiment: Antibacterial activity against Bacillus cereus MTCC 619 after 24 hr by agar streak dilution method; details: MTCC 619, 24 h
[12] = system: Staphylococcus aureus; experiment: Antibacterial activity against Staphylococcus aureus MTCC 96 after 24 hr by agar streak dilution method; details: MTCC 96, 24 h
[13] = system: Shigella flexneri; experiment: Antibacterial activity against Shigella flexneri MTCC 1457 after 24 hr by paper disk diffusion method
[14] = system: Proteus vulgaris; experiment: Antibacterial activity against Proteus vulgaris MTCC 1771 after 24 hr by paper disk diffusion method
[15] = system: Salmonella typhi; experiment: Antibacterial activity against Salmonella enterica subsp. enterica serovar Typhi MTCC 733 after 24 hr by paper disk diffusion method
[16] = system: Pseudomonas aeruginosa; experiment: Antibacterial activity against Pseudomonas aeruginosa MTCC 741 after 24 hr by paper disk diffusion method
[17] = system: Escherichia coli; experiment: Antibacterial activity against Escherichia coli MTCC 739 after 24 hr by paper disk diffusion method
[18] = system: Bacillus cereus; experiment: Antibacterial activity against Bacillus cereus MTCC 619 after 24 hr by paper disk diffusion method
[19] = system: Staphylococcus aureus; experiment: Antibacterial activity against Staphylococcus aureus MTCC 96 after 24 hr by paper disk diffusion method

SMILES | MIC [1] [mg/L] | MIC [2] [mg/L] | inhibition zone (IZ) [3] [mm] | inhibition zone (IZ) [4] [mm] | MIC [5] [mg/L] | MIC [6] [mg/L] | MIC [7] [mg/L] | MIC [8] [mg/L] | MIC [9] [mg/L] | MIC [10] [mg/L] | MIC [11] [mg/L] | MIC [12] [mg/L] | inhibition zone (IZ) [13] [mm] | inhibition zone (IZ) [14] [mm] | inhibition zone (IZ) [15] [mm] | inhibition zone (IZ) [16] [mm] | inhibition zone (IZ) [17] [mm] | inhibition zone (IZ) [18] [mm] | inhibition zone (IZ) [19] [mm]
Cn1c(=O)cc(Oc2nc(NCC(=O)O)nc(Nc3ccc(C#N)cc3)n2)c2ccccc21 | > 50 | 50 (≈ 113 µM) | <5 | 7 | 50 (≈ 113 µM) | 25 (≈ 56.4 µM) | 50 (≈ 113 µM) | 50 (≈ 113 µM) | 50 (≈ 113 µM) | 50 (≈ 113 µM) | 50 (≈ 113 µM) | 50 (≈ 113 µM) | 9 | 13 | 8 | 8 | <5 | 7 | <5
CCOC(=O)CNc1nc(Nc2ccc(C#N)cc2)nc(Oc2cc(=O)n(C)c3ccccc23)n1 | > 50 | 50 (≈ 106 µM) | <5 | 9 | 50 (≈ 106 µM) | 12.5 (≈ 26.5 µM) | 50 (≈ 106 µM) | 50 (≈ 106 µM) | 50 (≈ 106 µM) | 50 (≈ 106 µM) | 50 (≈ 106 µM) | 50 (≈ 106 µM) | 11 | 15 | 8 | <5 | 7 | 9 | 6
CC(C)Nc1nc(Nc2ccc(C#N)cc2)nc(Oc2cc(=O)n(C)c3ccccc23)n1 | 50 (≈ 117 µM) | 50 (≈ 117 µM) | 7 | 8 | 50 (≈ 117 µM) | 50 (≈ 117 µM) | 50 (≈ 117 µM) | 50 (≈ 117 µM) | 50 (≈ 117 µM) | 50 (≈ 117 µM) | 25 (≈ 58.5 µM) | 50 (≈ 117 µM) | 8 | 8 | 6 | <5 | 9 | 13 | 8
CCCCNc1nc(Nc2ccc(C#N)cc2)nc(Oc2cc(=O)n(C)c3ccccc23)n1 | 50 (≈ 113 µM) | > 50 | 6 | <5 | 50 (≈ 113 µM) | 50 (≈ 113 µM) | 50 (≈ 113 µM) | 50 (≈ 113 µM) | 25 (≈ 56.6 µM) | 50 (≈ 113 µM) | 50 (≈ 113 µM) | 50 (≈ 113 µM) | 7 | <5 | 6 | 11 | <5 | 8 | 12
Cn1c(=O)cc(Oc2nc(NCCCl)nc(Nc3ccc(C#N)cc3)n2)c2ccccc21 | 50 (≈ 112 µM) | 50 (≈ 112 µM) | 9 | 8 | 50 (≈ 112 µM) | 50 (≈ 112 µM) | 25 (≈ 55.8 µM) | 50 (≈ 112 µM) | 50 (≈ 112 µM) | 25 (≈ 55.8 µM) | 50 (≈ 112 µM) | 25 (≈ 55.8 µM) | <5 | 8 | 13 | 7 | 15 | 11 | 12
Cn1c(=O)cc(Oc2nc(NCCO)nc(Nc3ccc(C#N)cc3)n2)c2ccccc21 | > 50 | > 50 | <5 | <5 | 50 (≈ 116 µM) | 50 (≈ 116 µM) | 50 (≈ 116 µM) | 50 (≈ 116 µM) | 50 (≈ 116 µM) | 50 (≈ 116 µM) | 50 (≈ 116 µM) | 50 (≈ 116 µM) | 7 | 7 | 9 | 9 | <5 | <5 | <5
CNc1nc(Nc2ccc(C#N)cc2)nc(Oc2cc(=O)n(C)c3ccccc23)n1 | > 50 | > 50 | <5 | <5 | 50 (≈ 125 µM) | 50 (≈ 125 µM) | 50 (≈ 125 µM) | 50 (≈ 125 µM) | 6.25 (≈ 15.6 µM) | 50 (≈ 125 µM) | 50 (≈ 125 µM) | 50 (≈ 125 µM) | 8 | 8 | <5 | 14 | <5 | 7 | 11
CN(C)c1nc(Nc2ccc(C#N)cc2)nc(Oc2cc(=O)n(C)c3ccccc23)n1 | > 50 | > 50 | <5 | <5 | 50 (≈ 121 µM) | 50 (≈ 121 µM) | 50 (≈ 121 µM) | 50 (≈ 121 µM) | 50 (≈ 121 µM) | 50 (≈ 121 µM) | 12.5 (≈ 30.2 µM) | 50 (≈ 121 µM) | <5 | 9 | 7 | 8 | 10 | 14 | 12
CCNc1nc(Nc2ccc(C#N)cc2)nc(Oc2cc(=O)n(C)c3ccccc23)n1 | > 50 | > 50 | <5 | <5 | 50 (≈ 121 µM) | 50 (≈ 121 µM) | 50 (≈ 121 µM) | 50 (≈ 121 µM) | 12.5 (≈ 30.2 µM) | 50 (≈ 121 µM) | 50 (≈ 121 µM) | 50 (≈ 121 µM) | 7 | <5 | 9 | 12 | 8 | <5 | 10
CCN(CC)c1nc(Nc2ccc(C#N)cc2)nc(Oc2cc(=O)n(C)c3ccccc23)n1 | 50 (≈ 113 µM) | 50 (≈ 113 µM) | 9 | 9 | 50 (≈ 113 µM) | 50 (≈ 113 µM) | 50 (≈ 113 µM) | 50 (≈ 113 µM) | 50 (≈ 113 µM) | 50 (≈ 113 µM) | 12.5 (≈ 28.3 µM) | 25 (≈ 56.6 µM) | 10 | <5 | 10 | 10 | 11 | 16 | 13
